Results published in publication PMC5761851, “Application of a phenotypic drug discovery strategy to identify biological and chemical starting points for inhibition of TSLP production in lung epithelial cells” (PLoS ONE, 2018).

What was measured:
Assay in all cases: kinase selectivity panel
Type in all cases: biochemical
Met = target: T1, Met (Homo sapiens, UniProt P08581); conditions: read-out: percentage of control activity (POC), Met
T1 construct: purchased Eurofins Pharma Discovery Services (KinaseProfiler; Cerep BioPrint panel)
Description: (§1) Kinase selectivity was evaluated at Eurofins Pharma Discovery Services using a selection of 125 representative kinases tested at a concentration of 10 μM in duplicate (S3 Table). IC50 values for selected activities were further characterized at 9 duplicate concentrations. DNA-PK activity was determined at the SelectScreen® Biochemical kinase Profiling Service of Thermo Fisher Scientific.

BTK = target: T2, BTK (Homo sapiens, UniProt Q06187); conditions: read-out: percentage of control activity (POC), BTK
T2 construct: purchased Eurofins Pharma Discovery Services (KinaseProfiler; Cerep BioPrint panel)
Description: as §1

LOK = target: T3, LOK (Homo sapiens, UniProt O94804); conditions: read-out: percentage of control activity (POC), LOK
T3 construct: purchased Eurofins Pharma Discovery Services (KinaseProfiler; Cerep BioPrint panel)
Description: as §1

PDGFRβ = target: T4, PDGFRβ (Homo sapiens, UniProt P09619); conditions: read-out: percentage of control activity (POC), PDGFRβ
T4 construct: purchased Eurofins Pharma Discovery Services (KinaseProfiler; Cerep BioPrint panel)
Description: as §1

PKA = target: T5, PKA (Homo sapiens, UniProt P17612); conditions: read-out: percentage of control activity (POC), PKA
T5 construct: purchased Eurofins Pharma Discovery Services (KinaseProfiler; Cerep BioPrint panel)
Description: as §1

JNK3 = target: T6, JNK3 (Homo sapiens, UniProt P53779); conditions: read-out: percentage of control activity (POC), JNK3
T6 construct: purchased Eurofins Pharma Discovery Services (KinaseProfiler; Cerep BioPrint panel)
Description: as §1

CK1γ1 = target: T7, CK1γ1 (Homo sapiens, UniProt Q9HCP0); conditions: read-out: percentage of control activity (POC), CK1γ1
T7 construct: purchased Eurofins Pharma Discovery Services (KinaseProfiler; Cerep BioPrint panel)
Description: as §1

ROCK-II = target: T8, ROCK-II (Homo sapiens, UniProt O75116); conditions: read-out: percentage of control activity (POC), ROCK-II
T8 construct: purchased Eurofins Pharma Discovery Services (KinaseProfiler; Cerep BioPrint panel)
Description: as §1

BRK = target: T9, BRK (Homo sapiens, UniProt Q13882); conditions: read-out: percentage of control activity (POC), BRK
T9 construct: purchased Eurofins Pharma Discovery Services (KinaseProfiler; Cerep BioPrint panel)
Description: as §1

PI3K (p120g) = target: T10, PI3K (p120g) (Homo sapiens, UniProt P48736); conditions: 10 μM; read-out: percentage of control activity (POC), PI3K (p120g)
T10 construct: Eurofins Pharma Discovery Services (contract assay service)
Description: as §1

MEK1 = target: T11, MEK1 (Homo sapiens, UniProt Q02750); conditions: read-out: percentage of control activity (POC), MEK1
T11 construct: purchased Eurofins Pharma Discovery Services (KinaseProfiler; Cerep BioPrint panel)
Description: as §1

JAK1 = target: T12, JAK1 (Homo sapiens, UniProt P23458); conditions: read-out: percentage of control activity (POC), JAK1
T12 construct: purchased Eurofins Pharma Discovery Services (KinaseProfiler; Cerep BioPrint panel)
Description: as §1

SAPK3 = target: T13, SAPK3 (Homo sapiens, UniProt P53778); conditions: read-out: percentage of control activity (POC), SAPK3
T13 construct: purchased Eurofins Pharma Discovery Services (KinaseProfiler; Cerep BioPrint panel)
T13 sequence (P53778 1-367): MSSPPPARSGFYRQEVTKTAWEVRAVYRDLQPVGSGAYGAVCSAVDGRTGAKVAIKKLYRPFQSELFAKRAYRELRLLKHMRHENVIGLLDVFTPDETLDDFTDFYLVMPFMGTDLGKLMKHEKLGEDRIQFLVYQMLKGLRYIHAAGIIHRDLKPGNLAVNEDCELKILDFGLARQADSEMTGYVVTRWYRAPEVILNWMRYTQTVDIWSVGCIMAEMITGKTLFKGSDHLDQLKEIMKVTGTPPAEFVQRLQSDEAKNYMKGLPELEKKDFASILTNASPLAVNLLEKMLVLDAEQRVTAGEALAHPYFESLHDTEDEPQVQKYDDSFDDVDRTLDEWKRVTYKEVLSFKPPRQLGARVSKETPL
Description: as §1

Flt4 = target: T14, Flt4 (Homo sapiens, UniProt P35916); conditions: 10 μM; read-out: percentage of control activity (POC), Flt4
T14 construct: Eurofins Pharma Discovery Services (contract assay service)
Description: as §1

CaMKIIγ = target: T15, CaMKIIγ (Homo sapiens, UniProt Q13555); conditions: read-out: percentage of control activity (POC), CaMKIIγ
T15 construct: purchased Eurofins Pharma Discovery Services (KinaseProfiler; Cerep BioPrint panel)
Description: as §1

Flt1 = target: T16, Flt1 (Homo sapiens, UniProt P17948); conditions: read-out: percentage of control activity (POC), Flt1
T16 construct: purchased Eurofins Pharma Discovery Services (KinaseProfiler; Cerep BioPrint panel)
Description: as §1

SAPK2a = target: T17, SAPK2a (Homo sapiens, UniProt Q16539); conditions: for remaining activity at 10 µM: read-out: percentage of control activity (POC), SAPK2a
T17 construct: purchased Eurofins Pharma Discovery Services (KinaseProfiler; Cerep BioPrint panel)
Description: as §1

PKCγ = target: T18, PKCγ (Homo sapiens, UniProt P05129); conditions: read-out: percentage of control activity (POC), PKCγ
T18 construct: purchased Eurofins Pharma Discovery Services (KinaseProfiler; Cerep BioPrint panel)
Description: as §1

Lck = target: T19, Lck (Homo sapiens, UniProt P06239); conditions: 10 μM; read-out: percentage of control activity (POC), Lck
T19 construct: Eurofins Pharma Discovery Services (contract assay service)
Description: as §1

SAPK2b = target: T20, SAPK2b (Homo sapiens, UniProt Q15759); conditions: for remaining activity at 10 µM: read-out: percentage of control activity (POC), SAPK2b
T20 construct: purchased Eurofins Pharma Discovery Services (KinaseProfiler; Cerep BioPrint panel)
Description: as §1

PI3K (p110b/p85a) = target: T21, PI3K (p110b/p85a) (Homo sapiens, UniProt P42338); conditions: read-out: percentage of control activity (POC), PI3K (p110b/p85a)
T21 construct: purchased Eurofins Pharma Discovery Services (KinaseProfiler; Cerep BioPrint panel)
Description: as §1

PKCα = target: T22, PKCα (Homo sapiens, UniProt P17252); conditions: read-out: percentage of control activity (POC), PKCα
T22 construct: purchased Eurofins Pharma Discovery Services (KinaseProfiler; Cerep BioPrint panel)
Description: as §1

Rsk2 = target: T23, Rsk2 (Homo sapiens, UniProt P51812); conditions: read-out: percentage of control activity (POC), Rsk2
T23 construct: purchased Eurofins Pharma Discovery Services (KinaseProfiler; Cerep BioPrint panel)
Description: as §1

FGFR1 = target: T24, FGFR1 (Homo sapiens, UniProt P11362); conditions: read-out: percentage of control activity (POC), FGFR1
T24 construct: purchased Eurofins Pharma Discovery Services (KinaseProfiler; Cerep BioPrint panel)
Description: as §1

RIPK2 = target: T25, RIPK2 (Homo sapiens, UniProt O43353); conditions: read-out: percentage of control activity (POC), RIPK2
T25 construct: purchased Eurofins Pharma Discovery Services (KinaseProfiler; Cerep BioPrint panel)
Description: as §1

CaMKIIδ = target: T26, CaMKIIδ (Homo sapiens, UniProt Q13557); conditions: read-out: percentage of control activity (POC), CaMKIIδ
T26 construct: purchased Eurofins Pharma Discovery Services (KinaseProfiler; Cerep BioPrint panel)
Description: as §1

Ret = target: T27, Ret (Homo sapiens, UniProt P07949); conditions: read-out: percentage of control activity (POC), Ret
T27 construct: purchased Eurofins Pharma Discovery Services (KinaseProfiler; Cerep BioPrint panel)
Description: as §1

T17 sequence (Q16539 whole entry): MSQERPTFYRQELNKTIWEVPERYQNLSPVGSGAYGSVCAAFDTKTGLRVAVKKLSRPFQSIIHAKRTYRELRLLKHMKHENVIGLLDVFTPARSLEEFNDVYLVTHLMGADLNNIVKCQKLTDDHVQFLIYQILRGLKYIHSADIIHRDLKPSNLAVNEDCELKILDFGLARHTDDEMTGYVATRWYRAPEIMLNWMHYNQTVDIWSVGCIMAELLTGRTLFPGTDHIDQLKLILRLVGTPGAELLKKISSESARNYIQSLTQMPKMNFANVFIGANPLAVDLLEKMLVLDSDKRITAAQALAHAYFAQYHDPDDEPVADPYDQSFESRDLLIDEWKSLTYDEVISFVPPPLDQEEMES
T20 sequence (Q15759 whole entry): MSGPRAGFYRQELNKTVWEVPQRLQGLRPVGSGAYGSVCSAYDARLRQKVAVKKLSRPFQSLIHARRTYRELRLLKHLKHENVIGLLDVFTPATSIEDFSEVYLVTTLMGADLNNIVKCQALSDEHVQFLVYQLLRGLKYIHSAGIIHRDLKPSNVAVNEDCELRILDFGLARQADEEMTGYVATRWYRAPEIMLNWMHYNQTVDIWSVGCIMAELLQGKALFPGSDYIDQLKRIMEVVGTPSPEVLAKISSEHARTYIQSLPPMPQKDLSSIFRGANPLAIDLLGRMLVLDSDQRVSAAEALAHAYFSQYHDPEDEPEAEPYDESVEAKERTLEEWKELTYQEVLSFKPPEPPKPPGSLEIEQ
T2 sequence (Q06187 whole entry): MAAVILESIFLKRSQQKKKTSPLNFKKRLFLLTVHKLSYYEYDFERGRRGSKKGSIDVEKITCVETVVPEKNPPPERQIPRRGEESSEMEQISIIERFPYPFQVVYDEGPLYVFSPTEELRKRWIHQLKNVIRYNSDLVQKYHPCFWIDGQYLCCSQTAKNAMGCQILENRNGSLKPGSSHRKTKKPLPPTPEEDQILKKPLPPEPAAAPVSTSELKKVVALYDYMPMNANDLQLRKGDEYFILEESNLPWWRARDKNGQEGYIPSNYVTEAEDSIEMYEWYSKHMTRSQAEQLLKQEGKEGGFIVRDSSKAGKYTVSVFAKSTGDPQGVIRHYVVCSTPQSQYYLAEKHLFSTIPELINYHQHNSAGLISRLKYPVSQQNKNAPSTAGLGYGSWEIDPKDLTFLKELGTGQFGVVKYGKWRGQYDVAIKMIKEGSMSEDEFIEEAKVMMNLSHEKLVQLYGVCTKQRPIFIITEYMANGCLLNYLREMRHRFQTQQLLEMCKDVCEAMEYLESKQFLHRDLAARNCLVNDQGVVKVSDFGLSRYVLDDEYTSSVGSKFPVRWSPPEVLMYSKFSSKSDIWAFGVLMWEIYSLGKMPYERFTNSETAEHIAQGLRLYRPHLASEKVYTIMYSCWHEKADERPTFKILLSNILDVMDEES
T6 sequence (P53779 whole entry): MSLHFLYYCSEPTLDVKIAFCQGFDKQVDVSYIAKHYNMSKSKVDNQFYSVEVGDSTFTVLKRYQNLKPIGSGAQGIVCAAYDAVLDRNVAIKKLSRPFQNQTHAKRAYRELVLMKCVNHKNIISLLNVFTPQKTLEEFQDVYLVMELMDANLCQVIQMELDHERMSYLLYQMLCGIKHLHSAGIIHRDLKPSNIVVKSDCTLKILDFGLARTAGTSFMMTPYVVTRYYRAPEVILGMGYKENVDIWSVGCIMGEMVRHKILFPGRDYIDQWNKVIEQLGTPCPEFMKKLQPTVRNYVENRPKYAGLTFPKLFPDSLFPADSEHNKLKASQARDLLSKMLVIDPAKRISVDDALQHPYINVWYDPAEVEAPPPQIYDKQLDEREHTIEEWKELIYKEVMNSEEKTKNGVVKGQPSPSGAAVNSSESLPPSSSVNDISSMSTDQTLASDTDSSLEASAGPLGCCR
T19 sequence (P06239 whole entry, species assumed): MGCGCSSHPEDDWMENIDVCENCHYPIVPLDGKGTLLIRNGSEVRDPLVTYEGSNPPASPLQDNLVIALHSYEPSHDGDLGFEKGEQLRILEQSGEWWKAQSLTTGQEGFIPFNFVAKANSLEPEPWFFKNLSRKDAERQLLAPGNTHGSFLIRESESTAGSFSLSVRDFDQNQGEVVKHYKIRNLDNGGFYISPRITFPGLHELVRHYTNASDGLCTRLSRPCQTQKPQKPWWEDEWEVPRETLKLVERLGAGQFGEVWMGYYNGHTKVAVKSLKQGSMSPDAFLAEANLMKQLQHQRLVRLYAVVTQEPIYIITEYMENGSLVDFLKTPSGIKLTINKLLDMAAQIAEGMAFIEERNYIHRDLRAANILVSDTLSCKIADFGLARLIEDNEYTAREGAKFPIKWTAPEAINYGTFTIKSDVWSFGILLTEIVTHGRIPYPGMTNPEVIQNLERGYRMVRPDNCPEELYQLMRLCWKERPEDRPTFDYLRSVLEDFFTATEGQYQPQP
T8 sequence (O75116 whole entry): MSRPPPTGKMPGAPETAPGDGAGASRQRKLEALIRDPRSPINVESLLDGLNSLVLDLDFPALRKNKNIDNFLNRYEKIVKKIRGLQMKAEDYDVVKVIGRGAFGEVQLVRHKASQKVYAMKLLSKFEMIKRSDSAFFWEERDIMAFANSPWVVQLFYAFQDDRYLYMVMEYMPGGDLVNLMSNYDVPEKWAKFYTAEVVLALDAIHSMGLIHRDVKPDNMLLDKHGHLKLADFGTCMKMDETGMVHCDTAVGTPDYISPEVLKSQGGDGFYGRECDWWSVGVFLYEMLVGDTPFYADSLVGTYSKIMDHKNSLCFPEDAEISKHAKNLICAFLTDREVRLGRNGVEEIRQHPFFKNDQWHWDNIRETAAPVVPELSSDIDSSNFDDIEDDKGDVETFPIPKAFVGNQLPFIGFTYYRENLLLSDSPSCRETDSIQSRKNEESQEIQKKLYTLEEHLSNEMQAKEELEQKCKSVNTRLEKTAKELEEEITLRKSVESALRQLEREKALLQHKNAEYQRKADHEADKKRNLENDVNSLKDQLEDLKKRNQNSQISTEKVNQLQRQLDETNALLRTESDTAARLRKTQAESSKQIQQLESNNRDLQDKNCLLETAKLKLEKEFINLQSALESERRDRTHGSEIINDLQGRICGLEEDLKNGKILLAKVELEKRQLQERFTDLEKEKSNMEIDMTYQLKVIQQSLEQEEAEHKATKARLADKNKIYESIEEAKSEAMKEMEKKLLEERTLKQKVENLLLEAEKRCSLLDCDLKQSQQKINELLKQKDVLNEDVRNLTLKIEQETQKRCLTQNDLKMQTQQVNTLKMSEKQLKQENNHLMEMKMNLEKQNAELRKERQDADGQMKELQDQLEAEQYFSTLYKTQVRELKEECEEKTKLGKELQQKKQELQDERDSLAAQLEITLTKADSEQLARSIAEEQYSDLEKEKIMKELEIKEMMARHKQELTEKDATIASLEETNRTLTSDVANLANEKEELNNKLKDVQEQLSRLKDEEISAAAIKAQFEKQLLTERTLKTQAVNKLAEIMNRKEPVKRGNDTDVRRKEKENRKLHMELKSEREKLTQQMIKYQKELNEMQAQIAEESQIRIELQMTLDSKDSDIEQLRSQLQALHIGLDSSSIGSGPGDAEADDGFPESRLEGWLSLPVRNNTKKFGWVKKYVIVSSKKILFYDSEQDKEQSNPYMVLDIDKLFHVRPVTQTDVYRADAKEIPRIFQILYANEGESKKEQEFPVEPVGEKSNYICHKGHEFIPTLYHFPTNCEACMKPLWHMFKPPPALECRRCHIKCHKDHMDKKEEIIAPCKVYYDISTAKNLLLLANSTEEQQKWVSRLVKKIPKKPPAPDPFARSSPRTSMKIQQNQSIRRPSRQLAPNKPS
T26 sequence (Q13557 whole entry): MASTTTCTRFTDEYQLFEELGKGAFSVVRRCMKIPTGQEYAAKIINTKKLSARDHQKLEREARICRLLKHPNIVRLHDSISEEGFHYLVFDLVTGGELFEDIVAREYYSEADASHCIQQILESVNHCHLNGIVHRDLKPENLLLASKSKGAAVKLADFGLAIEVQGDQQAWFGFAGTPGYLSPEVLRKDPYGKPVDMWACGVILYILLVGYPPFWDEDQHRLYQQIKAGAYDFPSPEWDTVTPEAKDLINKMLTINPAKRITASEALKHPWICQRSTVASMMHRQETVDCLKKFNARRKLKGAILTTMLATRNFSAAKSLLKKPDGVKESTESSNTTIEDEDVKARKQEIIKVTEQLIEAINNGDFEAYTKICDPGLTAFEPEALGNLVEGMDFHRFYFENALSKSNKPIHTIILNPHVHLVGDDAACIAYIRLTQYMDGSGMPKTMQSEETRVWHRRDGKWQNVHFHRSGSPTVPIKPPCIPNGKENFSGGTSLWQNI

CS(=O)(=O)N1CCN(c2ccc(Nc3ncc(C(N)=O)c(NC4CC4)n3)cc2)CC1 [compound 5]
remaining activity at 10 µM (Met): 45%
remaining activity at 10 µM (BTK): 17%
remaining activity at 10 µM (LOK): 14%
remaining activity at 10 µM (PDGFRβ): 16%
remaining activity at 10 µM (PKA): 26%
remaining activity at 10 µM (JNK3): -4%
remaining activity at 10 µM (CK1γ1): 25%
remaining activity at 10 µM (ROCK-II): 3%
remaining activity at 10 µM (BRK): 39%
remaining activity at 10 µM (PI3K (p120g)): 86%
remaining activity at 10 µM (MEK1): 13%
remaining activity at 10 µM (JAK1): -2%
remaining activity at 10 µM (SAPK3): 64%
remaining activity at 10 µM (Flt4): 0%
remaining activity at 10 µM (CaMKIIγ): 24%
remaining activity at 10 µM (Flt1): -3%
remaining activity at 10 µM (SAPK2a): 89%
remaining activity at 10 µM (PKCγ): 4%
remaining activity at 10 µM (Lck): 4%
remaining activity at 10 µM (SAPK2b): 82%
remaining activity at 10 µM (PI3K (p110b/p85a)): 93%
remaining activity at 10 µM (PKCα): 38%
remaining activity at 10 µM (Rsk2): -2%
remaining activity at 10 µM (FGFR1): 3%
remaining activity at 10 µM (RIPK2): 81%
remaining activity at 10 µM (CaMKIIδ): 27%
remaining activity at 10 µM (Ret): -1%

COc1c(NC(=O)c2ccc(C)c(-c3nnc4c(NCC(C)(C)C)nccn34)c2)cc(C(C)(C)C)cc1NS(C)(=O)=O [compound 7, reference compound]
remaining activity at 10 µM (Met): 109%
remaining activity at 10 µM (BTK): 112%
remaining activity at 10 µM (LOK): 135%
remaining activity at 10 µM (PDGFRβ): 82%
remaining activity at 10 µM (PKA): 109%
remaining activity at 10 µM (JNK3): 75%
remaining activity at 10 µM (CK1γ1): 98%
remaining activity at 10 µM (ROCK-II): 93%
remaining activity at 10 µM (BRK): 98%
remaining activity at 10 µM (PI3K (p120g)): 86%
remaining activity at 10 µM (MEK1): 107%
remaining activity at 10 µM (JAK1): 101%
remaining activity at 10 µM (SAPK3): 67%
remaining activity at 10 µM (Flt4): 88%
remaining activity at 10 µM (CaMKIIγ): 102%
remaining activity at 10 µM (Flt1): 80%
inhibition at 10 µM (SAPK2a; read-out: inhibition of p38α(SAPK2α)): ~100%
remaining activity at 10 µM (SAPK2a): -1%
remaining activity at 10 µM (PKCγ): 105%
remaining activity at 10 µM (Lck): 81%
inhibition at 10 µM (SAPK2b; read-out: inhibition of p38 β(SAPK2β)): ~100%
remaining activity at 10 µM (SAPK2b): -4%
remaining activity at 10 µM (PI3K (p110b/p85a)): 87%
remaining activity at 10 µM (PKCα): 102%
remaining activity at 10 µM (Rsk2): 112%
remaining activity at 10 µM (FGFR1): 109%
remaining activity at 10 µM (RIPK2): 100%
remaining activity at 10 µM (CaMKIIδ): 96%
remaining activity at 10 µM (Ret): 71%
